Data as given in patent US11192921B2 (priority 2017, dated 2021).
Values joined by “and” are separate entries in the source; they are usually repeats but may differ in a detail not shown here. Identical values can stand only once. No end group written: not given here.

What was measured:
Kunming mice [1] = assay type: in vivo; settings: mouse, in vivo
Kunming mice [2] = settings: mouse, in vivo
Female Kunming mice = assay type: in vivo; settings: mouse, in vivo, ip

GCCSTPPCAVLYC (cysteine pairing not given here) [Conotoxin, reference compound]
Pain threshold (tail flick) (Kunming mice [1]): 2.23 ± 0.18 s and 2.32 ± 0.28 s and 2.21 ± 0.12 s and 2.31 ± 0.18 s and 2.12 ± 0.12 s and 2.63 ± 0.12 s
cumulative foot licking time, Phase I (Kunming mice [2]): 50.38 ± 9.38
cumulative foot licking time, Phase II (Kunming mice [2]): 53.64 ± 15.32
Pain threshold (Female Kunming mice): 27.29 ± 0.48 s and 29.32 ± 0.18 s and 24.1 ± 0.28 s and 30.39 ± 0.28 s and 27.39 ± 0.28 s and 26.21 ± 0.38 s and 24.63 ± 0.12 s
